Where two headings read alike, the source gives them in different places.

One assay relates to Balb/c mice. Briefly: Prevention of concanavalin A liver injury. The class given is in vivo, mouse. Particulars: Mus musculus, po, 24 h, 10 mg/mL suspension at 10 mL/kg, 30 min prior to Con A, plasma 24 hr after Con A. The protocol: Five (5) Balb/c mice (female, 6-8 weeks old) per group were used. Liver injury was elicited in the mouse by injection of concanavalin A (Con A) dissolved in saline (2.0 mg/mL) into the tail vein at a volume of 10 mL/kg of the solution (Hepatology, 21, 190-198 (1995)).
The test compounds were suspended in distilled water containing 0.5% CMC, at a concentration of 10 mg/mL. This suspended solution was orally administered to the mouse at a volume of 10 mL/kg, 30 min prior to injection of Con A (group A).
Apart from this group, distilled water containing 0.5% CMC powder, instead of the test compound, was orally administered in the second group of mice (group B). In the 3rd group, nothing was given to the mice (group C).
Twenty four (24) hr after the injection of Con A, blood was collected from the abdominal aorta of the mice and the plasma was isolated while mixing with heparin. Activities of glutamic acid oxaloacetic acid transaminase (AST) and glutamic acid pyruvic acid transaminase (ALT) in the plasma were determined according to the methods described by Nagakawa et al. (J. Pharmacol. Exp. Ther., 264, 496-500 (1993)). From the values obtained inhibitory rates of the test compound against AST and ALT levels which had been increased by injection of Con A, were obtained based on the following equation.
Inhibitory Rate(%)={1−[(A−C)/(B−C)]}×100
A: The average level of AST or ALT in the group A
B: The average level of AST or ALT in the group B
C: The average level of AST or ALT in the group C

A further assay deals with Rat white adipocytes. Nature of the assay: Stimulation of differentiation of the adipocytes (Oil Red O). It is filed as cell-based. The conditions noted are these: Rattus norvegicus, Adipocyte, 120 h, 100 nM test compound; 5 days; Oil Red O ABS550; control = 100%, blank = 0%; Table 7; read-out: Rate of Differentiation (%). Put shortly:
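Oil Red O lipid staining, absorbance 550 nm after DMSO extraction, quantified differentiation of rat white adipocytes exposed 5 days to compound (final 100 nM, 0.1% DMSO) in differentiation medium. Percent differentiation normalised between cell-free blank (0%) and DMSO control (100%).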

The subject of assay [1] is Mouse preadipocyte strain 3T3-L1. Briefly: Inhibition of differentiation as an indication of acetic acid uptake. The class given is cell-based. Particulars: Mus musculus, 3T3-L1, 0.1 μM test substance, control (0.01% dimethylsulfoxide) = 100%, read-out: Rate of Uptake (%) of [2-14C] acetic acid. Put shortly: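 Differentiation is indexed by 1 hr [2-14C]acetic acid incorporation, measured by scintillation counting and given as uptake relative to 0.01% DMSO control (100%). Mouse 3T3-L1 preadipocytes, pre-grown 10 days, received 0.1 μM test substance throughout a 4-day insulin/IBMX/dexamethasone induction, followed by 2 days' maintenance culture.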

The test system of assay [2] is human colon cancer cells COL-2-JCK. Briefly: Inhibition of colony forming activity in human colon cancer cells. It is filed as cell-based. The conditions noted are these: Homo sapiens, 240 h; 1 μM test compound; 10 days; sum of colony areas vs control; read-out: Inhibition Rate (%) against the colony forming activity. The protocol: For the medium to culture the human colon cancer cells, D-MEM/F-12 medium containing inactivated bovine fetal serum at a concentration of 10% (GIBCO) was used. The human colon cancer cells COL-2-JCK (purchased from Institute for Experimental Animals) grown in mass formation in a plastic dish for the cell culture with an inner diameter of 100 mm were stripped off from the dish by using EDTA (ethylenediaminetetraacetic acid) and 0.05% trypsin solution. Then, a cell dilution solution was prepared at a concentration of 100 cells/mL solution which was diluted with the medium (D-MEM/F-12).
Three (3) mL of the cell solution were inoculated in each well of a 6-well plastic plate (300 cells/well). The test compound that was dissolved in DMSO solution so as to be a final concentration of 1 μM of the test compound and that of DMSO solution of 0.1% was added to each well. DMSO solution alone was added into the well for the control so as to be a final concentration of 0.1%.
The cells in each well were cultured for 10 days at 37° C. in the presence of 5% CO2. After the culturing was finalised, each well was washed once with Dulbecco-phosphate-buffer-saline solution (bivalent anion). Then, 1.5 ml of neutral buffered formalin solution containing 0.02% crystal violet was added to each well and the plate was kept stationary for 5 min for fixation and staining the cells. After fixation and staining, the cells were washed with water and were air-dried. Then the sum of the colony area (mm^2) of the stained cancer cells was calculated by using an image analyzer PCA-11 (SystemScience). From the calculated values, the inhibition rate (%) of the compound against the colony forming activity was obtained based on the following equation.
Inhibition Rate (%) against the colony forming activity=(1−A/B)×100
A: Sum of Colony Areas in the Group Treated with 1 μM of the Test Compound
B: Sum of Colony Areas in the Control Group

The target of assay [3] is T1, human PPAR γ 2 (Homo sapiens, UniProt P37231).
T1 construct: expressed in transfected cells; host or cells: human osteosarcoma MG63, transiently co-transfected with pSG5-hPPARg and the reporter pGV-P2-PPRE
T1 sequence (P37231 1-505): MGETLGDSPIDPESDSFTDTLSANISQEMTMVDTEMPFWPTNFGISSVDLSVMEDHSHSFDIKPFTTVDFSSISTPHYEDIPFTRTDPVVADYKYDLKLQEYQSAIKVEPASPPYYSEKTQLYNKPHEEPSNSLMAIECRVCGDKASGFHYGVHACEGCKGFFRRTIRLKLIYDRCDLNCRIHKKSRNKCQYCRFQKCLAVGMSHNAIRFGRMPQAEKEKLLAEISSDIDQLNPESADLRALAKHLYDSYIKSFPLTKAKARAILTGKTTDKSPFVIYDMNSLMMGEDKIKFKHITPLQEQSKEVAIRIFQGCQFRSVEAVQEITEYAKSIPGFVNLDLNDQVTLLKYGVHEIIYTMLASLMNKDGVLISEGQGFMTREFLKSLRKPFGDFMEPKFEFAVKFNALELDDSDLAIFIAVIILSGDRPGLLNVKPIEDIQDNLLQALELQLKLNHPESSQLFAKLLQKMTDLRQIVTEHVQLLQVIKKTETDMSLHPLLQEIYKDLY
Nature of the assay: PPAR γ transcriptional activity, luciferase reporter, test compound alone. The class given is cell-based. Particulars: concentration indicating Emax/2, MG63 cells transfected with pSG5-hPPARg and pGV-P2-PPRE, 24 hr. The method, then:
The primers of the polymerase chain reaction (hereinafter “PCR”) were designed according to the gene sequence of human PPAR γ 2 (GenBANK accession No. D83233). In order to insert the genes into the BamHI site of the plasmid pSG5 ([…] CLONING SYSTEMS), Bgl II sites were added upstream and downstream of the genes encoding human PPAR γ 2 protein. For this, 2 kinds of polynucleotides shown in the sequence numbers 1 and 2 in the sequence table described below (hereinafter “S1” and “AS1”, respectively) were used as PCR primers.
(§1) In order to determine transcriptional activity via PPAR γ, 2 kinds of polynucleotides represented in sequence numbers 3 and 4 in the sequence table described below (hereinafter “S2” and “AS2”, respectively) were used for construction of the reporter plasmid having PPAR responsive element. The DNA fragment inserted was designed based on the gene sequence in the promoter region of rat acylCo-A oxidase (J. D. Tugwood, EMBO J., 11 (2), pp433-439 (1992)). For insertion of the DNA fragment into the reporter plasmid pGV-P2 (TOYO INK MFG CO., LTD), a NheI site and an XhoI site were added to the S2 and AS2, respectively.
(§2) Using cDNA library (Clontech) derived from human adipose tissue as a template, DNA oligomers S1 and AS1 that were synthesized in the procedure 1 as primers and Ex-Taq™ (TAKARA BIO INC.) as a thermostable DNA polymerase-PCR was carried out. As a result of the PCR, the c.a. 1500 bps DNA fragments were amplified. Each cycle consisted of incubation at 94° C. for 1 min for denaturation of the template, then at 55° C. for 30 sec for annealing of DNA oligomers the PCR primer, and then at 72° C. for 30 sec for extension of the chain. The obtained DNA fragments with approximately 1500 base pairs were digested at the Bgl II sites and were inserted into BamHI sites of pSG5. Thus a human PPAR γ expression plasmid named pSG5-hPPAR g was obtained. The nucleotide sequence of the inserted DNA fragment was confirmed to be identical sequence to the human PPAR γ 2 reported by the dideoxy method.
(§3) Vector pGV-P2 digestion products was prepared by digestion using the restriction enzymes, NheI and XhoI, and purified by 1.0% agarose-gel electrophoresis. The DNA oligomers, S2 and AS2 obtained in Procedure 2, were mixed together and were incubated in a hot bath at 94° C. for 1 min. After the annealing was partially broken, they were further incubated at 25° C. for 1 hr. Thus double-stranded DNA with annealing of S2 and AS2 was formed. Then, the terminus of the double-stranded DNA with annealing of S2 and AS2 was phosphorylated with DNA polynucleotide kinase (TOYOBO CO., LTD). After that, it was ligated to the pGV-P2 digestion products which were prepared previously using the NheI site and XhoI site. Thus the reporter plasmid pGV-P2-PPRE was obtained.
(§4) Using the plasmid obtained by the procedures 3 and 4, transformation of Escherichia coli HB-101 strain was carried out by conventional methods. HB-101 strain having the plasmid was incubated in L-broth medium (containing 10 g of trypton (Difco), 5 g of yeast extract (Difco), 5 g of sodium chloride in 1 L of aqueous solution) containing 100 μg/ml of ampicillin at 37° C. for 17 hrs. Then, each plasmid was purified by the alkaline-SDS method and employed for the gene transfection to mammalian cells. After mixing the pSG5-hPPARg, PGV-P2-PPRE and LipofectAMINE reagent (GIBCO BRL), the human osteosarcoma MG63 was transiently transfected. Then the cells were recovered. The recovered cells were plated on a 96-well plate so as to be 30,000 cells/well and cultured in a CO2 incubator (NAPCO) at 37° C. for 24 hr under the condition of 5% CO2, 95%-RH.
Various concentrations of the test compound alone were added to culturing medium of the cells prepared in the Procedure 5. After 24 hr of culturing, LT2.0 (TOYO INK MFG CO., LTD), a luciferase substrate, was added to the medium free culture plate. […]
(In a reporter assay the amount or activity of a reporter protein is the signal.)

Assay [4] has as its target T1, human PPAR γ 2. Briefly: Inhibitory activity against PPAR γ transcription in the presence of agonist compound A, luciferase reporter. The class given is cell-based. Particulars: in the presence of 10 nM compound A (agonist); MG63 cells transfected with pSG5-hPPARg and pGV-P2-PPRE; 24 hr.
Description: The primers of the polymerase chain reaction (hereinafter “PCR”) were designed according to the gene sequence of human PPAR γ 2 (GenBANK accession No. D83233). […] For this, 2 kinds of polynucleotides shown in the sequence numbers 1 and 2 in the sequence table described below (hereinafter “S1” and “AS1”, respectively) were used as PCR primers.
as §1
as §2, with “As a result of the PCR, the c.a. 1500 bps DNA fragments were amplified.” left out, “obtained.” for “obtained. The nucleotide sequence of the inserted DNA fragment was confirmed to be identical sequence to the human PPAR γ 2 reported by the dideoxy method.”
as §3, §4
Ten (10) nM of the following compound A (although compound A is described here as a representative compound, the compound is not limited to compound A, if the compound exerts a PPAR r agonistic activity) and various concentrations of the test compound were added to culturing medium of the cells prepared in the Procedure 5.

Where [5] appears, read: read-out: Preventing rate against liver injury, ALT (%).
The mark [6] stands for this setting: read-out: Preventing rate against liver injury, AST (%).

For `CS(=O)(=O)Nc1ccc(NC(=O)c2cc([N+](=O)[O-])ccc2Cl)cc1` [Example 136, N-(4-Methanesulfonylaminophenyl)-(2-chloro-5-nitrophenyl)carboxamide], the inhibition in vivo at 10000 µg/mL, 100 mg/kg in the assay with Balb/c mice (setting [5]) turned out to be 13.1%; in the assay on Balb/c mice (setting [6]) it was 12%. Further, the values for the activity at 0.1 µM (in the assay with Rat white adipocytes; in assay [1]) were 129% and 88.9%, respectively.
In general, inhibition refers to the share of the control response that was lost under treatment. Broadly, the EC50 is the concentration that produces a half-maximal response. The term IC50 denotes the concentration that inhibits the measured activity by half. `Cc1nc(NS(=O)(=O)c2ccc(NC(=O)c3cc([N+](=O)[O-])ccc3Cl)cc2)oc1C` [Example 97, N-[4-(4,5-Dimethyloxazol-2-yl)aminosulfonyl]phenyl-(2-chloro-5-nitrophenyl)carboxamide]: the inhibition at 1 µM in assay [2] is 3%. The EC50 on human PPAR γ 2 [3] turned out to be 360 nM. For the same compound, at human PPAR γ 2 [4], the IC50 was found to be 790 nM.
Take `Cc1ccc(NS(=O)(=O)c2cccc(NC(=O)c3cc([N+](=O)[O-])ccc3Cl)c2)cc1` [Example 142, N-[3-(4-Tolylaminosulfonyl)phenyl]-(2-chloro-5-nitrophenyl)carboxamide]: the values for the inhibition in vivo at 10000 µg/mL, 100 mg/kg with Balb/c mice (setting [5]) and in the assay on Balb/c mice (setting [6]) were 54% and 63%, respectively. The activity at 0.1 µM turned out to be 112% in the assay with Rat white adipocytes and 74.4% in assay [1].
